Reference: the supplement of paper PMC10307832

Assays:
Assay in all cases: relative viability (nuclei count vs DMSO), 5 days (fraction); higher = more cells survive
NCI-H1651 = tested on: NCI-H1651
How it was run: (§1)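 Lung cancer cell lines in 1536-well plates were dosed by pin tool the day after seeding, either with one drug alone or with a fixed anchor-drug dose plus five library-drug doses (not always all listed) in √10 steps. After 5 days, cells were fixed and their nuclei stained in one step (final 0.05% Triton X-100, 1% formaldehyde, 1 ug/ml Hoechst), then counted on 4× images. Relative viability is the nuclei count in treated wells divided by that in vehicle wells. Values are medians of duplicate plates.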

LOU-NH91 = tested on: LOU-NH91
How it was run: as §1

NCI-H1395 = tested on: NCI-H1395
How it was run: as §1

NCI-H1437 = tested on: NCI-H1437
How it was run: as §1

NCI-H1734 = tested on: NCI-H1734
How it was run: as §1

SK-LU-1 = tested on: SK-LU-1
How it was run: as §1

LCLC-103H = tested on: LCLC-103H
How it was run: as §1

NCI-H2405 = tested on: NCI-H2405
How it was run: as §1

NCI-H23 = tested on: NCI-H23
How it was run: as §1

RERF-LC-KJ = tested on: RERF-LC-KJ
How it was run: as §1

NCI-H1792 = tested on: NCI-H1792
How it was run: as §1

NCI-H1915 = tested on: NCI-H1915
How it was run: as §1

NCI-H1793 = tested on: NCI-H1793
How it was run: as §1

NCI-H1975 = tested on: NCI-H1975
How it was run: as §1

EMC-BAC-2 = tested on: EMC-BAC-2
How it was run: as §1

UMC-11 = tested on: UMC-11
How it was run: as §1

HCC-78 = tested on: HCC-78
How it was run: as §1

NCI-H2023 = tested on: NCI-H2023
How it was run: as §1

EPLC-272H = tested on: EPLC-272H
How it was run: as §1

NCI-H661 = tested on: NCI-H661
How it was run: as §1

201T = tested on: 201T
How it was run: as §1

NCI-H647 = tested on: NCI-H647
How it was run: as §1

Cc1cnc(-c2cnc(NCCNc3ccc(C#N)cn3)nc2-c2ccc(Cl)cc2Cl)[nH]1 + CC(=O)Nc1cccc(-n2c(=O)n(C3CC3)c(=O)c3c(Nc4ccc(I)cc4F)n(C)c(=O)c(C)c32)c1 [Trametinib] (partner 0.02 µM)
relative viability (NCI-H1651; first compound 0.08 µM): 0.855 | relative viability (NCI-H1651; first compound 0.253 µM): 0.706 | relative viability (NCI-H1651; first compound 0.8 µM): 0.74 | relative viability (NCI-H1651; first compound 2.53 µM): 0.864 | relative viability (LOU-NH91; first compound 0.08 µM): 0.799 | relative viability (LOU-NH91; first compound 0.253 µM): 0.84 | relative viability (LOU-NH91; first compound 0.8 µM): 0.843 | relative viability (LOU-NH91; first compound 2.53 µM): 0.856 | relative viability (NCI-H1395; first compound 0.08 µM): 1.22 | relative viability (NCI-H1395; first compound 0.253 µM): 0.715 | relative viability (NCI-H1395; first compound 0.8 µM): 1.03 | relative viability (NCI-H1395; first compound 2.53 µM): 0.924 | relative viability (NCI-H1437; first compound 0.08 µM): 0.677 | relative viability (NCI-H1437; first compound 0.253 µM): 0.492 | relative viability (NCI-H1437; first compound 0.8 µM): 0.489 | relative viability (NCI-H1437; first compound 2.53 µM): 0.381 | relative viability (NCI-H1734; first compound 0.08 µM): 0.801 | relative viability (NCI-H1734; first compound 0.253 µM): 0.641 | relative viability (NCI-H1734; first compound 0.8 µM): 0.775 | relative viability (NCI-H1734; first compound 2.53 µM): 0.72 | relative viability (SK-LU-1; first compound 0.08 µM): 0.489 | relative viability (SK-LU-1; first compound 0.253 µM): 0.61 | relative viability (SK-LU-1; first compound 0.8 µM): 0.563 | relative viability (SK-LU-1; first compound 2.53 µM): 0.707 | relative viability (LCLC-103H; first compound 0.08 µM): 0.686 | relative viability (LCLC-103H; first compound 0.253 µM): 0.676 | relative viability (LCLC-103H; first compound 0.8 µM): 0.631 | relative viability (LCLC-103H; first compound 2.53 µM): 0.671 | relative viability (NCI-H2405; first compound 0.08 µM): 0.755 | relative viability (NCI-H2405; first compound 0.253 µM): 0.634 | relative viability (NCI-H2405; first compound 0.8 µM): 0.611 | relative viability (NCI-H2405; first compound 2.53 µM): 0.439 | relative viability (NCI-H23; first compound 0.08 µM): 0.412 | relative viability (NCI-H23; first compound 0.253 µM): 0.339 | relative viability (NCI-H23; first compound 0.8 µM): 0.451 | relative viability (NCI-H23; first compound 2.53 µM): 0.882 | relative viability (RERF-LC-KJ; first compound 0.08 µM): 0.951 | relative viability (RERF-LC-KJ; first compound 0.253 µM): 0.847 | relative viability (RERF-LC-KJ; first compound 0.8 µM): 0.832 | relative viability (RERF-LC-KJ; first compound 2.53 µM): 0.771 | relative viability (NCI-H1792; first compound 0.08 µM): 0.525 | relative viability (NCI-H1792; first compound 0.253 µM): 0.437 | relative viability (NCI-H1792; first compound 0.8 µM): 0.472 | relative viability (NCI-H1792; first compound 2.53 µM): 0.349 | relative viability (NCI-H1915; first compound 0.08 µM): 0.308 | relative viability (NCI-H1915; first compound 0.8 µM): 0.29 | relative viability (NCI-H1915; first compound 2.53 µM): 0.299 | relative viability (NCI-H1793; first compound 0.08 µM): 0.462 | relative viability (NCI-H1793; first compound 0.253 µM): 0.45 | relative viability (NCI-H1793; first compound 0.8 µM): 0.422 | relative viability (NCI-H1793; first compound 2.53 µM): 0.403 | relative viability (NCI-H1975; first compound 0.08 µM): 0.35 | relative viability (NCI-H1975; first compound 0.253 µM): 0.383 | relative viability (NCI-H1975; first compound 0.8 µM): 0.353 | relative viability (NCI-H1975; first compound 2.53 µM): 0.339 | relative viability (EMC-BAC-2; first compound 0.08 µM): 1.06 | relative viability (EMC-BAC-2; first compound 0.253 µM): 0.976 | relative viability (EMC-BAC-2; first compound 0.8 µM): 0.853 | relative viability (EMC-BAC-2; first compound 2.53 µM): 0.887 | relative viability (UMC-11; first compound 0.08 µM): 0.891 | relative viability (UMC-11; first compound 0.253 µM): 0.525 | relative viability (UMC-11; first compound 0.8 µM): 0.377 | relative viability (UMC-11; first compound 2.53 µM): 0.82 | relative viability (HCC-78; first compound 0.08 µM): 0.876 | relative viability (HCC-78; first compound 0.253 µM): 0.669 | relative viability (HCC-78; first compound 0.8 µM): 0.621 | relative viability (HCC-78; first compound 2.53 µM): 0.828 | relative viability (NCI-H2023; first compound 0.08 µM): 0.647 | relative viability (NCI-H2023; first compound 0.253 µM): 0.537 | relative viability (NCI-H2023; first compound 0.8 µM): 0.712 | relative viability (NCI-H2023; first compound 2.53 µM): 0.798 | relative viability (EPLC-272H; first compound 0.08 µM): 0.26 | relative viability (EPLC-272H; first compound 0.253 µM): 0.298 | relative viability (EPLC-272H; first compound 0.8 µM): 0.314 | relative viability (EPLC-272H; first compound 2.53 µM): 0.296 | relative viability (NCI-H661; first compound 0.08 µM): 0.606 | relative viability (NCI-H661; first compound 0.253 µM): 0.537 | relative viability (NCI-H661; first compound 0.8 µM): 0.68 | relative viability (NCI-H661; first compound 2.53 µM): 0.681 | relative viability (201T; first compound 0.08 µM): 0.746 | relative viability (201T; first compound 0.8 µM): 0.707 | relative viability (201T; first compound 2.53 µM): 0.753 | relative viability (NCI-H647; first compound 0.08 µM): 0.606 | relative viability (NCI-H647; first compound 0.253 µM): 0.401 | relative viability (NCI-H647; first compound 0.8 µM): 0.498 | relative viability (NCI-H647; first compound 2.53 µM): 0.601
